Reference: patent publication US9884851B2, “Heterocycle-bisamide inhibitors of scavenger receptor BI” (THE BROAD INSTITUTE, INC., priority 2012, dated 2018)

Key:
[1] = Cell cytotoxicity assay (CellTiter-Glo); details: Chinese hamster, ldlA[mSR-BI] cells
Method: It is possible that a compound will cause cells to decrease HDL-mediated DiI uptake due to nonspecific consequences of cellular toxicity, representing a second class of false positive hits. The cells were treated with compounds for 3 hours or 24 hours, and then cell viability was measured using the CellTiter-Glo Assay (Promega), a luciferase-based reagent that measures cellular ATP levels. The compounds were tested at different concentrations to determine IC50 values. […] Data were normalized against DMSO and the positive control (1 μM BLT-1) in Genedata Assay Analyzer.
All available dry powder samples of the remaining, non-quenching compounds were procured from commercial sources and purities were determined. The compounds obtained were then retested in the primary assay and in cytotoxicity assays. We wanted to rule out any compounds that were cytotoxic, especially in the 3-hour time span of the primary DiI-HDL uptake assay. Therefore, compounds were tested in ldl[mSR-BI] cells for cytotoxicity at 3 hours and 24 hours using the CellTiter-Glo assay (Promega) that measures cellular ATP as a marker of cell viability. […] Compounds were screened for inhibition of endocytosis using labeled transferrin, which is known to bind the transferrin receptor, enter cells by clathrin-mediated endocytosis, and move to endosomes before being recycled to the cell surface.

[2] = Stability in PBS; assay type: physicochemical; details: 1% DMSO, over 48 hours
Method: (§1) We noticed that the concentration of the probe fluctuated through the course of the assay (data not shown). We believe that this fluctuation is due to the low kinetic solubility of the probe. Thus, we decided to determine the amount of undissolved probe present in the well after it was treated with PBS for a given length of time, relative to the amount of undissolved probe at the start of the assay. The wells were centrifuged and the supernatant was removed after various time points, then acetonitrile was added to dissolve the remaining solid in the wells, and the amount of probe was quantified. […] The stability of the probe was confirmed by measuring stability in human plasma, with >99% remaining after a 5-hour incubation period. […] FIG. 5 summarizes known properties of the probe.

[3] = Stability in human plasma; assay type: in vitro ADME; details: 5-hour incubation
Method: as §1

[4] = Stability to GSH; assay type: physicochemical
Source text: Probe 2 (ML279) can potentially act as an electrophile under biological conditions, with its tetrazole alpha to the western amide.

For `C[C@H](C(=O)NC1CCCC1)N(C(=O)Cn1nnc(-c2ccc3c(c2)OCO3)n1)C1CCCCC1` [ML279, (R)-2-(2-(5-(Benzo[d][1,3]dioxol-5-yl)-2H-tetrazol-2-yl)-N-cyclohexylacetamido)-N-cyclopentylpropanamide], the EC50 at 24 h [1] was over 35 µM, the IC50 at 24 h [1] was over 35 µM and the “stability in PBS (in words)” value [2] was “stable to PBS”. The “stability in human plasma, remaining” value [3] was over 99% and the “stability to GSH (in words)” value [4] was “stable to GSH”.
